This note sets out measurements from the kinase profiling compilation of Christmann-Franck et al. (2016).

What all share (experiment): radiometric filter-binding kinase assay, Kinaseprofiler
Assay [1] has as its system AURKA (human), O14965 [I31F]. The conditions noted are these: ATP 15 µM.
The subject of assay [2] is MAPKAPK2 (human), P49137 [A399G]. The following applies: ATP 90 µM.
The test system of assay [3] is MARK1 (human), Q9P0L2 [V16E/T20S]. The conditions noted are these: ATP 10 µM.
Assay [4] relates to MERTK (human), Q12866 [H628Q/R794A]. The conditions noted are these: ATP 45 µM.
Assay [5] deals with PRKCH (human), P24723 [V108L/G109R/L392Q]. The conditions noted are these: ATP 45 µM.
Assay [6] has as its system AKT2 (human), P31751 [S474D]. The following applies: ATP 200 µM.
Assay [7] relates to RAF1 (human), P04049 [Y340D/Y341D]. The following applies: ATP 45 µM.
For assay [8], the system named is TEC (human), P42680 [F514V]. The following applies: ATP 120 µM.
Sequence of TEC (human), P42680 [F514V] (P42680 whole entry, looked up, stated change not applied): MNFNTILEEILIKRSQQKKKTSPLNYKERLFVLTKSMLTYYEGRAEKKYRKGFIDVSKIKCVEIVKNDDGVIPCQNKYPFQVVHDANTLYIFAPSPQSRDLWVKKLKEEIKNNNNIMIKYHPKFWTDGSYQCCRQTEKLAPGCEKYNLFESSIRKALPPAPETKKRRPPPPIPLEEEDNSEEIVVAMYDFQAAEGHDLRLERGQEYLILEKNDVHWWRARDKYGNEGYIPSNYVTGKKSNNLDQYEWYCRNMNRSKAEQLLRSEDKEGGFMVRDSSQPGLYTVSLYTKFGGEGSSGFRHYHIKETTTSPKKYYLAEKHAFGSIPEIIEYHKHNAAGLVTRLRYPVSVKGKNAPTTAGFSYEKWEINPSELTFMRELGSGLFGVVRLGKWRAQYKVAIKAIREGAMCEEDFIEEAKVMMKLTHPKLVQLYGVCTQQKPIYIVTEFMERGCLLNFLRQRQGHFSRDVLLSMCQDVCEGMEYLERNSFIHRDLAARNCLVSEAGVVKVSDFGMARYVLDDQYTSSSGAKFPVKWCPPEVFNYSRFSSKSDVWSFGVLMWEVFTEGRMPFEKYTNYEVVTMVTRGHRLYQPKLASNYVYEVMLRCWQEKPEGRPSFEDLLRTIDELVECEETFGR

Sequence of MERTK (human), Q12866 [H628Q/R794A] (Q12866 whole entry, looked up, stated change not applied): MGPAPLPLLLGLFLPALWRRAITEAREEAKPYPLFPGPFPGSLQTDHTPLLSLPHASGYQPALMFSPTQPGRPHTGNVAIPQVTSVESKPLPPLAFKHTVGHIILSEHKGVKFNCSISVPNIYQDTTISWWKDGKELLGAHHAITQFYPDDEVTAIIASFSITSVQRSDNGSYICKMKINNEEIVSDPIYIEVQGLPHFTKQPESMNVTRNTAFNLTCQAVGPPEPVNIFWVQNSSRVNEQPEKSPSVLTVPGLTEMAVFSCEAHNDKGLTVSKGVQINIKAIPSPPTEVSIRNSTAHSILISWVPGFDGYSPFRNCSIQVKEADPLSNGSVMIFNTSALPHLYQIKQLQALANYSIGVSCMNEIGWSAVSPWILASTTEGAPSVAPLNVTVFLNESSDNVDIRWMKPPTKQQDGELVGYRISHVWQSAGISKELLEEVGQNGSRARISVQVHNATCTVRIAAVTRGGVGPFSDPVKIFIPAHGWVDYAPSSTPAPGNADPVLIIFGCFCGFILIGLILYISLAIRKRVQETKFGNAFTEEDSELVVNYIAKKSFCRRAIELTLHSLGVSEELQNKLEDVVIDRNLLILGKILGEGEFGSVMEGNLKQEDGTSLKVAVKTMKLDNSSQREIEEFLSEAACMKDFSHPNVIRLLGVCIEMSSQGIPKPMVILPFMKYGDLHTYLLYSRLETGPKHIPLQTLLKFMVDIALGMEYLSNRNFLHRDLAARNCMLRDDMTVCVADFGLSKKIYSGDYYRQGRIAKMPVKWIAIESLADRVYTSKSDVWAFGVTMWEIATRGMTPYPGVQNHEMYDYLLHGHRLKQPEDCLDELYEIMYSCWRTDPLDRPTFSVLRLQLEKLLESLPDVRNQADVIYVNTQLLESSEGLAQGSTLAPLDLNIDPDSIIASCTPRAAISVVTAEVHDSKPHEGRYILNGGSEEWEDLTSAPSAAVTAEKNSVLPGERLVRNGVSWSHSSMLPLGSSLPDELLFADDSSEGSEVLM
Sequence of PRKCH (human), P24723 [V108L/G109R/L392Q] (P24723 whole entry, looked up, stated change not applied): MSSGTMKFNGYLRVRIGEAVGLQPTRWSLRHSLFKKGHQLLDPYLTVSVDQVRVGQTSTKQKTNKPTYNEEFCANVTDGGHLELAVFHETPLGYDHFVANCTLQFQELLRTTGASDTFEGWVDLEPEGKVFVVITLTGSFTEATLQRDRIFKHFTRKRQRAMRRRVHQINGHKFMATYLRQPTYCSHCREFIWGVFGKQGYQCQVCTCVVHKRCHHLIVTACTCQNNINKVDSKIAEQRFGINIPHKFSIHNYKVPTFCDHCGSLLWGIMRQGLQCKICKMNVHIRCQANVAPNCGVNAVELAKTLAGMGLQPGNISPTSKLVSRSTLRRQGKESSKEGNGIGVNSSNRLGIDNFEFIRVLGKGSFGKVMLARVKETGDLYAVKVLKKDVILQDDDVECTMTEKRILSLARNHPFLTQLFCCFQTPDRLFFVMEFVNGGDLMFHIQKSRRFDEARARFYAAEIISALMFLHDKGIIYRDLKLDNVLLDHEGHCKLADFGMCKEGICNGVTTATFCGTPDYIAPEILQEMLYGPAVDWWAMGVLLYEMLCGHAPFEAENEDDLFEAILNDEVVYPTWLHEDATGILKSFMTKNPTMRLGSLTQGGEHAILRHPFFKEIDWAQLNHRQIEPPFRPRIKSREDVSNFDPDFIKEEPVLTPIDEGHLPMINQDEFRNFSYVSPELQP
Sequence of MAPKAPK2 (human), P49137 [A399G] (P49137 whole entry A399G, looked up): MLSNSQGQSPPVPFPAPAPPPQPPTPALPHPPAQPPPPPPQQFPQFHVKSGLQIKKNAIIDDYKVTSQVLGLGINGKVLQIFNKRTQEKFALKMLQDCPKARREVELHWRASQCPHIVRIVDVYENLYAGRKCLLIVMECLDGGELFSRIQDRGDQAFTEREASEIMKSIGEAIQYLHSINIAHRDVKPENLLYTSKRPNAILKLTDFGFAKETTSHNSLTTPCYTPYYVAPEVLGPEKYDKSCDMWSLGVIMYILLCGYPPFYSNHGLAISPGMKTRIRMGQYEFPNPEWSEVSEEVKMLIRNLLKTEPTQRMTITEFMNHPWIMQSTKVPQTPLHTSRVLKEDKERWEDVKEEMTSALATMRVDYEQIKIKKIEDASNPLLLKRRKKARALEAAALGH
Sequence of AURKA (human), O14965 [I31F] (O14965 whole entry, looked up, stated change not applied): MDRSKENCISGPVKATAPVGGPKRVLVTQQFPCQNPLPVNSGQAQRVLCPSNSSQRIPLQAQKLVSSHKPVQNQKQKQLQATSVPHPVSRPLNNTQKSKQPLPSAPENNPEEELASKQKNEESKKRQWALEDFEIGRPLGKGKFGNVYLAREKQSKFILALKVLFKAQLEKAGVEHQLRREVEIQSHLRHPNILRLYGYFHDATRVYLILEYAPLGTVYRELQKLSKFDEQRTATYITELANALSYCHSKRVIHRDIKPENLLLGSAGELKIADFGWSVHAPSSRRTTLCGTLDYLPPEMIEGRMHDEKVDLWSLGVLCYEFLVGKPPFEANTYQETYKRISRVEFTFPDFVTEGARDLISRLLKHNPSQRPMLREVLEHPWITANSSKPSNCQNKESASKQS
Sequence of AKT2 (human), P31751 [S474D] (P31751 whole entry S474D, looked up): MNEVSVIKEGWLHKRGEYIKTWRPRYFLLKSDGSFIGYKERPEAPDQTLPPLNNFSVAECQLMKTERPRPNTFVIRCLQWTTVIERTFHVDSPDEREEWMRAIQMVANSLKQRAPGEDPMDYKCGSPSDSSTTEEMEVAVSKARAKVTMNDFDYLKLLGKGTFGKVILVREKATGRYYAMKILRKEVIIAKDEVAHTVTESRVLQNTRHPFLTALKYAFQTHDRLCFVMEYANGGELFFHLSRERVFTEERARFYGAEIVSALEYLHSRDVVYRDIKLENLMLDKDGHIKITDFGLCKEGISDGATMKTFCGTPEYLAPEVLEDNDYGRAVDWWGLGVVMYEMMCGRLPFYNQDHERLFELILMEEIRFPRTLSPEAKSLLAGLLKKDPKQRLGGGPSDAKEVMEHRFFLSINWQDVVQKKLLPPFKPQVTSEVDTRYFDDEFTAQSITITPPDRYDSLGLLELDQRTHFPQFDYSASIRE
Sequence of MARK1 (human), Q9P0L2 [V16E/T20S] (Q9P0L2 whole entry, looked up, stated change not applied): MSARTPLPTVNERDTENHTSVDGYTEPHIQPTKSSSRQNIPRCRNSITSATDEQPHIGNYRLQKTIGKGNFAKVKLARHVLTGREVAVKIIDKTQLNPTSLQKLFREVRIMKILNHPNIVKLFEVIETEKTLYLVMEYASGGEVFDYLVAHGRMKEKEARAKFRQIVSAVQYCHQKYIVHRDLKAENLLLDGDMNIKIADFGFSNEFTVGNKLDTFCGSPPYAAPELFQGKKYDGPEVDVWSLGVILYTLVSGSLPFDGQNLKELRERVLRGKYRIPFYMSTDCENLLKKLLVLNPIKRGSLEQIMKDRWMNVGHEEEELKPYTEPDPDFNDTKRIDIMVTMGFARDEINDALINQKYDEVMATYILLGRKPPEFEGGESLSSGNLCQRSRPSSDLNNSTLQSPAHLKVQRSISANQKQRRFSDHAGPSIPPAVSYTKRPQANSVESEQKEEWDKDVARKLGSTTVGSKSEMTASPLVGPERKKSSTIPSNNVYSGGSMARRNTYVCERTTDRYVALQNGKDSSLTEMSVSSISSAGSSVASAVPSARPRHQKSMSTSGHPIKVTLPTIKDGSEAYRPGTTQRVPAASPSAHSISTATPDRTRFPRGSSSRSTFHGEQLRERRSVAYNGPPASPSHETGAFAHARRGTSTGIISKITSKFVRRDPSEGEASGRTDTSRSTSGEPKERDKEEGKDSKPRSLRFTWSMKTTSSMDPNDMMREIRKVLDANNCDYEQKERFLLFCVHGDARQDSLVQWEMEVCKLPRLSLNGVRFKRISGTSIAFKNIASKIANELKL

Consider `COC(=O)[C@]1(O)C[C@@H]2O[C@@]1(C)n1c3ccccc3c3c4c(c5c6ccccc6n2c5c31)C(=O)NC4`, for which the residual activity – broadly, the signal under treatment as a percentage of the control signal – in assay [1] (compound 10.0 µM) is -1%; in assay [2] (compound 1.0 µM) it was 0%; in assay [2] (compound 10.0 µM), -6%; in assay [3] (compound 1.0 µM), 0%; in assay [3] (compound 10.0 µM), 0%; in assay [4] (compound 10.0 µM) it was 0%.
For `O=C1Nc2ccccc2/C1=C1\Nc2ccccc2\C1=N/O`, the residual activity amounted to 7% in assay [1] (compound 1.0 µM); 0% in assay [1] (compound 10.0 µM); 91% in assay [5] (compound 1.0 µM); 83% in assay [5] (compound 10.0 µM); 101% in assay [2] (compound 1.0 µM); 76% in assay [2] (compound 10.0 µM). Besides, the residual activity in assay [6] (compound 1.0 µM) is 98%; in assay [6] (compound 10.0 µM), 92%; in assay [7] (compound 1.0 µM), 89%; in assay [7] (compound 10.0 µM) it was 66%; in assay [8] (compound 1.0 µM), 64%; in assay [8] (compound 10.0 µM), 22%. Besides, the residual activity in assay [3] (compound 1.0 µM) was 37%; in assay [3] (compound 10.0 µM) it was 5%; in assay [4] (compound 1.0 µM) it was -2%; in assay [4] (compound 10.0 µM), -3%.
For the compound `O=C1c2ccccc2-c2n[nH]c3cccc1c23`, the residual activity was 19% in assay [1] (compound 1.0 µM); 2% in assay [1] (compound 10.0 µM); 86% in assay [5] (compound 1.0 µM); 82% in assay [5] (compound 10.0 µM); 79% in assay [2] (compound 1.0 µM); 69% in assay [2] (compound 10.0 µM). In addition, the residual activity in assay [6] (compound 1.0 µM) came out at 104%; in assay [6] (compound 10.0 µM), 105%; in assay [7] (compound 1.0 µM) it was 69%; in assay [7] (compound 10.0 µM), 61%; in assay [8] (compound 1.0 µM), 89%; in assay [8] (compound 10.0 µM), 57%. The residual activity was 38% in assay [3] (compound 1.0 µM), 6% in assay [3] (compound 10.0 µM), 22% in assay [4] (compound 1.0 µM) and 9% in assay [4] (compound 10.0 µM).
As to `CN[C@@H]1C[C@H]2O[C@@](C)([C@@H]1OC)n1c3ccccc3c3c4c(c5c6ccccc6n2c5c31)C(=O)NC4`, the figures for the residual activity in assay [7] (compound 10.0 µM), in assay [3] (compound 1.0 µM) and in assay [4] (compound 10.0 µM) were 80%, 0% and 0%, respectively.
